Experimental data: US12077503B2, “Substituted cyclic amides and their use as herbicides” (FMC CORPORATION, priority 2015, dated 2024)

What was measured:
Assay in all cases: Test A preemergence
Format in all cases: in vivo
[1] = system: Kochia (Kochia scoparia); conditions: Bassia scoparia, pre-emergence, 240 h; for pest or weed control at 125 g/ha: 125 g ai/ha, preemergence, 0 to 100 scale where 0 is no effect and 100 is complete control, read-out: Kochia plant response rating; for pest or weed control at 500 g/ha: 500 g ai/ha, Preemergence, visual injury vs untreated controls after approximately 10 d, read-out: Kochia plant response rating (0 to 100 scale where 0 is no effect and 100 is complete control)
How it was run: (§1)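 Preemergence soil spray on seeded pots or post-emergence spray on 1–2 leaf plants, in loam–sand blend. Greenhouse ~10 d. Visual rating 0–100 against untreated plants.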

[2] = system: ryegrass, Italian (Italian ryegrass, Lolium multiflorum); conditions: Lolium multiflorum, pre-emergence, 240 h; for pest or weed control at 125 g/ha: 125 g ai/ha, preemergence, 0 to 100 scale where 0 is no effect and 100 is complete control, read-out: Ryegrass, Italian plant response rating; for pest or weed control at 500 g/ha: 500 g ai/ha, Preemergence, visual injury vs untreated controls after approximately 10 d, read-out: Ryegrass, Italian plant response rating (0 to 100 scale where 0 is no effect and 100 is complete control)
How it was run: as §1

[3] = system: pigweed (Amaranthus retroflexus); conditions: Amaranthus retroflexus, pre-emergence, 240 h; for pest or weed control at 125 g/ha: 125 g ai/ha, preemergence, 0 to 100 scale where 0 is no effect and 100 is complete control, read-out: Pigweed plant response rating; for pest or weed control at 500 g/ha: 500 g ai/ha, Preemergence, visual injury vs untreated controls after approximately 10 d, read-out: Pigweed plant response rating (0 to 100 scale where 0 is no effect and 100 is complete control)
[4] = system: giant foxtail (Setaria faberii); conditions: Setaria faberi, pre-emergence, 240 h; for pest or weed control at 125 g/ha: 125 g ai/ha, preemergence, 0 to 100 scale where 0 is no effect and 100 is complete control, read-out: Foxtail, Giant plant response rating; for pest or weed control at 500 g/ha: 500 g ai/ha, Preemergence, visual injury vs untreated controls after approximately 10 d, read-out: Foxtail, Giant plant response rating (0 to 100 scale where 0 is no effect and 100 is complete control)
How it was run: as §1

[5] = system: barnyardgrass (Echinochloa crus-galli); conditions: Echinochloa crus-galli, pre-emergence, 240 h; for pest or weed control at 125 g/ha: 125 g ai/ha, preemergence, 0 to 100 scale where 0 is no effect and 100 is complete control, read-out: Barnyardgrass plant response rating; for pest or weed control at 500 g/ha: 500 g ai/ha, Preemergence, visual injury vs untreated controls after approximately 10 d, read-out: Barnyardgrass plant response rating (0 to 100 scale where 0 is no effect and 100 is complete control)
How it was run: as §1

| SMILES | pest or weed control at 125 g/ha [1] [%] | pest or weed control at 125 g/ha [2] [%] | pest or weed control at 500 g/ha [2] [%] | pest or weed control at 125 g/ha [3] [%] | pest or weed control at 500 g/ha [3] [%] | pest or weed control at 125 g/ha [4] [%] | pest or weed control at 500 g/ha [4] [%] | pest or weed control at 125 g/ha [5] [%] | pest or weed control at 500 g/ha [5] [%] | pest or weed control at 500 g/ha [1] [%] |
| --- | --- | --- | --- | --- | --- | --- | --- | --- | --- | --- |
| CSc1ccccc1NC(=O)[C@H]1C(=O)NC[C@@H]1c1cccc2c1OC(F)(F)O2 [Compound 865] | 0 | 0 | 0 | 0 | 0 | 0 | 80 | 0 | 70 |  |
| CSc1ccccc1NC(=O)[C@H]1C(=O)N(C)C[C@@H]1c1cc(F)c(F)c(F)c1 [Compound 866] | 20 | 50 | 70 | 0 | 50 | 90 | 90 | 30 | 90 | 80 |
| CN1C[C@H](c2cc(F)cc(F)c2)[C@@H](C(=O)Nc2ccccc2[S@+](C)[O-])C1=O [Compound 871] | 80 | 0 | 30 | 0 | 30 | 80 | 80 | 20 | 90 | 80 |
| Cc1c(F)cccc1NC(=O)[C@H]1C(=O)N(C)C[C@@H]1c1cccc(COC(F)F)c1 [Compound 874] | 60 | 40 | 50 | 20 | 30 | 90 | 100 | 90 | 100 | 90 |
| CN1C[C@H](c2cccc(COC(F)F)c2)[C@@H](C(=O)Nc2ccccc2F)C1=O [Compound 875] | 50 | 0 | 30 | 0 | 0 | 90 | 90 | 90 | 90 | 80 |
| CSc1ccccc1NC(=O)[C@H]1C(=O)N(C)C[C@@H]1c1cccc(COC(F)F)c1 [Compound 876] | 0 | 0 | 30 | 0 | 30 | 80 | 100 | 60 | 90 | 70 |
| CN1C[C@H](c2cc(F)c(F)c(F)c2)[C@@H](C(=O)Nc2ccccc2F)C1=O [Compound 878] | 70 | 30 | 70 | 0 | 40 | 100 | 100 | 100 | 100 | 90 |
| Cc1cc(C)cc([C@H]2CNC(=O)[C@@H]2C(=O)Nc2cccc(F)c2F)c1 [Compound 889] | 80 | 30 | 40 | 0 | 0 | 90 | 90 | 90 | 90 | 80 |
| COc1c(F)ccc([C@H]2CNC(=O)[C@@H]2C(=O)Nc2ccc(F)c(F)c2F)c1Cl [Compound 890] | 40 | 50 | 70 | 30 | 50 | 90 | 90 | 90 | 90 | 90 |
| COc1c(F)ccc([C@H]2CNC(=O)[C@@H]2C(=O)Nc2ccccc2C(F)(F)F)c1Cl [Compound 891] | 0 | 0 | 30 | 0 | 0 | 80 | 90 | 60 | 80 | 20 |
| CN1C[C@H](c2cc(F)c(C(F)(F)F)c(F)c2)[C@@H](C(=O)Nc2ccccc2S(C)(=O)=O)C1=O [Compound 900] | 90 | 60 | 60 | 80 | 90 | 90 | 90 | 90 | 90 | 90 |
| CN1C[C@H](c2cc(F)c(C(F)(F)F)c(F)c2)[C@@H](C(=O)Nc2ccc(F)cc2F)C1=O [Compound 901] | 80 | 20 | 50 | 30 | 60 | 90 | 90 | 90 | 90 | 80 |
| CCOc1ccc([C@H]2CN(C)C(=O)[C@@H]2C(=O)Nc2ccc(F)cc2F)cc1 [Compound 905] | 10 | 0 | 0 | 0 | 0 | 90 | 90 | 70 | 90 | 90 |
| CCOc1ccc([C@H]2CNC(=O)[C@@H]2C(=O)Nc2ccc(F)cc2F)cc1 [Compound 908] | 0 | 0 | 0 | 0 | 0 | 30 | 80 | 0 | 50 | 0 |
| CON1CC[C@H](c2ccc(F)cc2)[C@@H](C(=O)Nc2cccc(F)c2F)C1=O [Compound 918] | 0 | 0 | 0 | 0 | 0 | 20 | 70 | 0 | 40 | 0 |
| CN1CC[C@H](c2cccc(C(F)(F)F)c2)[C@@H](C(=O)Nc2ccccc2S(C)(=O)=O)C1=O [Compound 920] | 0 | 0 | 0 | 0 | 0 | 80 | 90 | 70 | 90 | 0 |
| CN1CC[C@H](c2cccc(Cl)c2)[C@@H](C(=O)Nc2cccc(F)c2F)C1=O [Compound 921] | 0 | 50 | 60 | 0 | 0 | 90 | 100 | 90 | 90 | 30 |
